In patent US20030232101A1, “Topical formulations of resorcinols and cannibinoids and methods of use” (Immugen Pharmaceuticals, Inc., priority 2002, published 2003):

Assays:
HeLa CD4 LTR β-gal cells = assay: Compound toxicity in the attachment assay, sister plate, XTT or MTS (Example 2); assay type: cell-based
Method: (§1) This assay detects compounds that block virus attachment using HeLa CD4 LTR β-gal cells. HeLa CD4 LTR β-gal cells were cultured with selection antibiotics. Twenty-four h prior to initiation of the assay, the cells were trypsinized, counted and plated in a 0.2 cm well in media without selection antibiotics. At 24 h media is removed and compound in media placed on the cells and incubated for 15 min at 37° C. A known titer of the IIIB strain of HIV-1 was then added to the wells and the incubation continued for 1 to 2 h. At the end of the incubation the wells were washed 2 times with media and the culture continued for 40 to 48 h. At termination of the assay, media is removed and β-galactosidase enzyme expression determined by chemiluminescence per manufacturer's instructions (Tropix Gal-screen, Bedford Mass.). Compound toxicity is monitored on a sister plate by XTT or MTS dye reduction. All determinations are performed in triplicate with serial_Log10 dilution of the test materials. The virus adsorption interval of 1 to 2 h was sufficiently short that AZT, which requires phosphorylation to achieve its active tri-phosphate form (AZT-TTP), is not active in this assay.

[1] = as above; assay type: cell-based; details: human, HeLa CD4 LTR β-gal cells, read-out: Attachment Assay TC50
Method: as §1

Row | Structure (SMILES) | Attachment Assay TC50 (HeLa CD4 LTR β-gal cells) | CC50 [1]
1 | Cc1ccc2c(c1)-c1c(O)cc(C(C)(C)CCCC(C)C)cc1OC2(C)C [IMG511, 3-Norpentyl-3-(1,1,5-trimethylhexyl)cannabinol] | >67 µM | –
2 | CC1=CCC2C(C1)c1c(O)cc(C(C)(C)CCCC(C)C)cc1OC2(C)C (stereo not drawn) [IMG509, 3-Norpentyl-3-(1,1,5-trimethylhexyl)-Δ8-tetrahydrocannabinol] | – | > 10 µM
3 | Cc1c(O)cc(C(C)(C)CCCC(C)C)cc1O [IMG510, 2-Methyl-5-(1,1,5-trimethylhexyl)resorcinol] | – | > 10 µM
